Measurements from PMC9012943, “Oral remdesivir derivative VV116 is a potent inhibitor of respiratory syncytial virus with efficacy in mouse model” (Signal Transduction and Targeted Therapy, 2022).
Several values for one entry are separate records, joined by “and”; a condition that tells them apart may be missing. Equal entries are not always repeated. Where two headings read alike, the source gives them in different places. One block for each compound: values may come before it.

Legend:
RSV A2 [1] = experiment: Inhibition of RSV A2 replication in A549 cells (qRT-PCR); type: cell-based, respiratory syncytial virus; details: for EC50: human respiratory syncytial virus, RSV A2 MOI 2, 48 h
Method: A549, HEp-2 or NHBE cells were plated into 48 well-plate and incubated overnight. Upon reaching 80% cell confluence, cells were infected RSV A2 (at an MOI of 2 in A549, MOI of 0.5 in HEp-2, and MOI of 1 in NHBE cells) for 2 h after cells were incubated for 1 h with varying concentrations of drugs. Then, the virus-drug mixture was removed, and cells were cultured with drug-containing medium. At 48 h post inoculation, total RNAs were extracted from cells and then in reverse transcription using PrimeScript RT reagent Kit with gDNA Eraser (TaKaRa). For determining the viral copies, absolute quantitative RT-PCR was performed with TB Green® Premix Ex Taq^TM II (TaKaRa). RSV A2 F fragment was quantified with primers 5’-[…]-3’; and 5’-[…]-3’

[2] = Cellular toxicity in A549 cells (WST-8 cell viability); type: cell-based; details: human
Method: Cell viability was performed in 96-well plate with triplicate for each concentration. All drugs were diluted 2 times with 9 gradients starting at 500 micromores in maintenance medium (DMEM containing 2% FBS). After 48 h incubation, the supernatant was removed, and 10 μL WST-8 (2-(2-methoxy-4-(phenyl)-3-(4-(phenyl) to 5 (2, 4-sulpho benzene) -2 h-tetrazolium monosodium salt) in maintenance medium was added in medium. Plates were measured at 450 nm wavelength using spectrophotometer (BioTek) after 2 h incubation, and cell viability was calculated.

[3] = Pharmacokinetic study in SD rats; type: in vivo
Method: SD rats (N = 3 for each group, male) were fasted for 12 h before dosing (only for the oral administration). The test compound (VV116 or VV116-H) was administered intravenously at 5.0 mg/kg dissolved in DMSO-enthanol-PEG300-saline (5/5/40/50, v/v/v/v), and administered orally at 30 mg/kg dissolved in 40%PEG400+10% Kolliphor® HS15+50% ultrapure water. At 5 min, 0.25, 0.5, 1.0, 2.0, 4.0, 6.0, 8.0, and 24 h post-dosing, blood samples were collected from the jugular vein into EDTA-K2 tubes. […] samples were obtained following general procedures and the concentrations of analytes in the supernatant were analyzed by LC-MS/MS.

RSV A2 [4] = type: in vivo, Balb/c mice; details: ribavirin 100 mg/kg b.i.d., day 4 p.i.
Method: Considering the potent effect of VV116 inhibiting RSV in vitro, we further tested the effect of […] against RSV in a mouse model. Ribavirin, the off-label used drug to treat RSV in the clinic, was employed as a control. To this end, 6–8-week Balb/c mice were intranasally infected with 4 × 10^6 FFU of RSV per mouse (day 0), and were then treated with VV116 (25, 50, and 100 mg/kg) or ribavirin (50 and 100 mg/kg) bis in die (b.i.d.) (supplementary Fig S3). […] Viral RNA level in the lung was measured with quantitative RT-PCR and virion load was measured with immunoplaque assay (Fig. 1e). […] We also evaluated the lung pathology of the challenged mice by histochemical analysis.
Specific pathogen-free (SPF) female Balb/c mice at the age of 6–8 weeks were purchased from Beijing Vital River Laboratory Animal Technology Co., Ltd. The mice were housed in an SPF environment under standard conditions. All mouse experiments were approved by the ethics committee of the Wuhan Institute of Virology, Chinese Academy of Science (permit number WIVA25202113). Thirty mice (5 animals per group, 6 groups) were anaesthetized with isoflurane and challenged with 4×10^6 FFU of RSV A2 intranasally (i.n.). The mice were given drugs by intragastric administration. Treatments were commenced in 1 h post infection and continued for 4 days. […] The weight of the mice was recorded daily. […]

RSV = system: RSV; parameters: method as in PMID 8413475; details: prophylactic treatment; cited from earlier work
[5] = A549 cells, 48 h, read-out: CC50
[6] = X1 (VV116) or GS-441524 (VV116-H), i.v. 5.0 mg/kg
[7] = X1 (VV116) or GS-441524 (VV116-H), p.o. 30.0 mg/kg

Compound: Nc1ccn([C@@H]2O[C@@](CO)(CCl)[C@@H](O)[C@H]2F)c(=O)n1 [ALS-8112]
SI (RSV A2 [1]): > 1785
EC50 (RSV A2 [1]): 280 ± 70 nM
CC50 at 48 h [2, 5]: > 500000 nM

Compound: N#C[C@@]1(c2ccc3c(N)ncnn23)O[C@H](CO)[C@@H](O)[C@H]1O [GS-441524, 1′-CN-4-aza-7,9-dideazaadenosine C-nucleoside]
SI (RSV A2 [1]): > 608
EC50 (RSV A2 [1]): 820 ± 460 nM
CC50 at 48 h [2, 5]: > 500000 nM

Compound: NC(=O)c1ncn([C@@H]2O[C@H](CO)[C@@H](O)[C@H]2O)n1 [ribavirin, Ribavirin]
Decrease of infectious titers in lung (RSV A2 [4]): ~ 2.0 log10
Decrease of viral RNA copies in lung (RSV A2 [4]): ~ 1.5 log10

Compound: palivizumab: approved prophylactic treatment for prevention of serious RSV lower respiratory tract disease in high-risk children
Share of individuals in whom effective in preventing hospitalization (RSV): ~ 50%

Second part, led by results:

EC50 (RSV A2 [1]): 20 ± 3 nM
Compound: CCC(CC)COC(=O)[C@H](C)N[P@](=O)(OC[C@H]1O[C@@](C#N)(c2ccc3c(N)ncnn23)[C@H](O)[C@@H]1O)Oc1ccccc1 [RDV, Remdesivir]
SI (RSV A2 [1]): 11300
CC50 at 48 h [2]: 226000 ± 11400 nM

Concentration of X1 or GS-441524 in plasma, Mean ([3]; IV 5.0 mg/kg, 5 min): 1997 ng/mL
Concentration of X1 or GS-441524 in plasma, individual rats ([3]; IV 5.0 mg/kg, 5 min, 5 mg/kg): 1940 ng/mL and 1960 ng/mL and 2090 ng/mL
Concentration of X1 or GS-441524 in plasma, Mean ([3]; IV 5.0 mg/kg, 0.25 h): 1557 ng/mL
Concentration of X1 or GS-441524 in plasma, individual rats ([3]; IV 5.0 mg/kg, 0.25 h, 5 mg/kg): 1560 ng/mL and 1620 ng/mL and 1490 ng/mL
Concentration of X1 or GS-441524 in plasma, Mean ([3]; IV 5.0 mg/kg, 0.5 h): 983 ng/mL
Concentration of X1 or GS-441524 in plasma, individual rats ([3]; IV 5.0 mg/kg, 0.5 h, 5 mg/kg): 1040 ng/mL and 921 ng/mL and 988 ng/mL
Concentration of X1 or GS-441524 in plasma, Mean ([3]; IV 5.0 mg/kg, 1.0 h): 502 ng/mL
Concentration of X1 or GS-441524 in plasma, individual rats ([3]; IV 5.0 mg/kg, 1.0 h, 5 mg/kg): 425 ng/mL and 522 ng/mL and 558 ng/mL
Concentration of X1 or GS-441524 in plasma, Mean ([3]; IV 5.0 mg/kg, 2.0 h): 158 ng/mL
Concentration of X1 or GS-441524 in plasma, individual rats ([3]; IV 5.0 mg/kg, 2.0 h, 5 mg/kg): 150 ng/mL and 163 ng/mL and 162 ng/mL
Concentration of X1 or GS-441524 in plasma, Mean ([3]; IV 5.0 mg/kg, 4.0 h): 25 ng/mL
Concentration of X1 or GS-441524 in plasma, individual rats ([3]; IV 5.0 mg/kg, 4.0 h, 5 mg/kg): 23.6 ng/mL and 24.3 ng/mL and 27.8 ng/mL
Concentration of X1 or GS-441524 in plasma, Mean ([3]; IV 5.0 mg/kg, 6.0 h): 11 ng/mL
Concentration of X1 or GS-441524 in plasma, individual rats ([3]; IV 5.0 mg/kg, 6.0 h, 5 mg/kg): BQL (2×) and 11.2 ng/ml
Concentration of X1 or GS-441524 in plasma, individual rats ([3]; IV 5.0 mg/kg, 8.0 h): BQL
Concentration of X1 or GS-441524 in plasma, individual rats ([3]; IV 5.0 mg/kg, 24.0 h): BQL
Concentration of X1 or GS-441524 in plasma, Mean ([3]; PO 30.0 mg/kg, 5 min): 251 ng/mL
Concentration of X1 or GS-441524 in plasma, individual rats ([3]; PO 30.0 mg/kg, 5 min, 30 mg/kg): 122 ng/mL and 279 ng/mL and 353 ng/mL
Concentration of X1 or GS-441524 in plasma, Mean ([3]; PO 30.0 mg/kg, 0.25 h): 1480 ng/mL
Concentration of X1 or GS-441524 in plasma, individual rats ([3]; PO 30.0 mg/kg, 0.25 h, 30 mg/kg): 1450 ng/mL and 1180 ng/mL and 1810 ng/mL
Concentration of X1 or GS-441524 in plasma, Mean ([3]; PO 30.0 mg/kg, 0.5 h): 1963 ng/mL
Concentration of X1 or GS-441524 in plasma, individual rats ([3]; PO 30.0 mg/kg, 0.5 h, 30 mg/kg): 1790 ng/mL and 1440 ng/mL and 2660 ng/mL
Concentration of X1 or GS-441524 in plasma, Mean ([3]; PO 30.0 mg/kg, 1.0 h): 1523 ng/mL
Concentration of X1 or GS-441524 in plasma, individual rats ([3]; PO 30.0 mg/kg, 1.0 h, 30 mg/kg): 1570 ng/mL and 1490 ng/mL and 1510 ng/mL
Concentration of X1 or GS-441524 in plasma, Mean ([3]; PO 30.0 mg/kg, 2.0 h): 1717 ng/mL
Concentration of X1 or GS-441524 in plasma, individual rats ([3]; PO 30.0 mg/kg, 2.0 h, 30 mg/kg): 1610 ng/mL and 1730 ng/mL and 1810 ng/mL
Concentration of X1 or GS-441524 in plasma, Mean ([3]; PO 30.0 mg/kg, 4.0 h): 860 ng/mL
Concentration of X1 or GS-441524 in plasma, individual rats ([3]; PO 30.0 mg/kg, 4.0 h, 30 mg/kg): 761 ng/mL and 995 ng/mL and 825 ng/mL
Concentration of X1 or GS-441524 in plasma, Mean ([3]; PO 30.0 mg/kg, 6.0 h): 179 ng/mL
Concentration of X1 or GS-441524 in plasma, individual rats ([3]; PO 30.0 mg/kg, 6.0 h, 30 mg/kg): 154 ng/mL and 165 ng/mL and 218 ng/mL
Concentration of X1 or GS-441524 in plasma, Mean ([3]; PO 30.0 mg/kg, 8.0 h): 76 ng/mL
Concentration of X1 or GS-441524 in plasma, individual rats ([3]; PO 30.0 mg/kg, 8.0 h, 30 mg/kg): 32.8 ng/mL and 90 ng/mL and 106 ng/mL
Concentration of X1 or GS-441524 in plasma, Mean ([3]; PO 30.0 mg/kg, 24.0 h): 13 ng/mL
Concentration of X1 or GS-441524 in plasma, individual rats ([3]; PO 30.0 mg/kg, 24.0 h, 30 mg/kg): 9.79 ng/mL and 23.3 ng/mL and 6.27 ng/mL
AUC0-t [3, 6]: 1689 ± 80 ng·h/mL
AUC0-∞ [3, 6]: 1709 ± 74 ng·h/mL
CL [3, 6]: 48.8 ± 2.1 mL/min/kg
Cmax [3, 6]: 1997 ± 81 ng/mL
MRT0-∞ [3, 6]: 0.82 ± 0.05 h
T1/2 [3, 6]: 0.73 ± 0.07 h
Vss [3, 6]: 2.41 ± 0.05 L/kg
AUC0-t [3, 7]: 7664 ± 802 ng·h/mL
AUC0-∞ [3, 7]: 7768 ± 827 ng·h/mL
Cmax [3, 7]: 2060 ± 520 ng/mL
MRT0-∞ [3, 7]: 3.47 ± 0.80 h
T1/2 [3, 7]: 4.59 ± 2.08 h
Tmax [3, 7]: 1.00 ± 0.87 h
F ([3]; X1 (VV116) or GS-441524 (VV116-H), p.o. 30.0 mg/kg vs i.v. 5.0 mg/kg): 75.6%
Compound: CC(C)C(=O)OC[C@H]1O[C@@](C#N)(c2ccc3c(N)ncnn23)[C@H](OC(=O)C(C)C)[C@@H]1OC(=O)C(C)C [VV116-H]

EC50 (RSV A2 [1]): 1200 ± 320 nM
Compound: [2H]c1cc([C@]2(C#N)O[C@H](COC(=O)C(C)C)[C@@H](OC(=O)C(C)C)[C@H]2OC(=O)C(C)C)n2ncnc(N)c12 [X6]
SI (RSV A2 [1]): 80
CC50 at 48 h [2, 5]: 95900 ± 9270 nM
